Measurements as given in the supplement of paper PMC10307832.

Assays:
Experiment in all cases: relative viability (nuclei count vs DMSO), 5 days (fraction); higher = more cells survive
[1] = compound: C[C@@]1(C(=O)Nc2ccc(F)nc2)CCCN1c1nc(Nc2cc(C3CC3)n[nH]2)c2cccn2n1 + Cc1nc(NC(=O)N2CCC[C@H]2C(N)=O)sc1-c1ccnc(C(C)(C)C(F)(F)F)c1 [Alpelisib] (partner 2 µM)
Summary of the method: (§1)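 Values are medians from duplicate plates. Each reflects relative viability, defined as the nuclei count of treated wells over that of vehicle wells. Lung cancer cell lines in 1536-well plates were pin-tool dosed one day after seeding with one drug alone or with a fixed anchor-drug dose plus five library-drug doses (not always all listed) in √10 steps, then fixed, stained and imaged at 4× after 5 days.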

[2] = compound: C[C@@]1(C(=O)Nc2ccc(F)nc2)CCCN1c1nc(Nc2cc(C3CC3)n[nH]2)c2cccn2n1 + COc1cccc2cc(-c3nc([C@H]4CC[C@H](C(=O)O)CC4)n4ncnc(N)c34)[nH]c12 [OSI-027] (partner 0.5 µM)
Summary of the method: as §1

[3] = compound: C[C@@]1(C(=O)Nc2ccc(F)nc2)CCCN1c1nc(Nc2cc(C3CC3)n[nH]2)c2cccn2n1 + O=C(CCCCCCC(=O)Nc1ccccc1)NO [Vorinostat] (partner 1 µM)
Summary of the method: as §1

[4] = compound: C[C@@]1(C(=O)Nc2ccc(F)nc2)CCCN1c1nc(Nc2cc(C3CC3)n[nH]2)c2cccn2n1 + C[C@]1(O)C[C@@H](c2nc(-c3ccc4ccc(-c5ccccc5)nc4c3)c3c(N)nccn32)C1 [Linsitinib] (partner 1 µM)
Summary of the method: as §1

Row | Cell Line | relative viability ([1]; first compound 0.04 µM) | relative viability ([1]; first compound 0.1265 µM) | relative viability ([1]; first compound 0.4 µM) | relative viability ([1]; first compound 1.265 µM) | relative viability ([2]; first compound 0.04 µM) | relative viability ([2]; first compound 0.1265 µM) | relative viability ([2]; first compound 0.4 µM) | relative viability ([2]; first compound 1.265 µM) | relative viability ([3]; first compound 0.04 µM) | relative viability ([3]; first compound 0.1265 µM) | relative viability ([3]; first compound 0.4 µM) | relative viability ([3]; first compound 1.265 µM) | relative viability ([4]; first compound 0.04 µM) | relative viability ([4]; first compound 0.1265 µM) | relative viability ([4]; first compound 0.4 µM) | relative viability ([4]; first compound 1.265 µM)
1 | SW 1573 | 0.802 | 0.518 | 0.523 | 0.715 | 0.548 | 0.24 | 0.283 | 0.302 | 0.667 | 0.585 | 0.482 | 0.263 | 0.914 | 0.665 | 0.656 | 0.806
2 | NCI-H661 | 0.592 | 0.665 | 0.793 | 0.566 | 0.592 | 0.564 | 0.249 | 0.529 | 0.781 | 0.774 | 0.815 | 0.559 | 0.63 | 0.809 | 0.571 | 0.545
3 | PC-3 [JPC-3] | 1.06 | 0.945 | 0.893 | 0.974 | 0.688 | 0.59 | 0.485 | 0.621 | 0.717 | 0.718 | 0.755 | 0.525 | 0.972 | 0.94 | 0.964 | 0.934
4 | LC-2-ad | 0.764 | 0.726 | 0.61 | 0.504 | 0.601 | 0.458 | 0.405 | 0.392 | 0.66 | 0.554 | 0.526 | 0.186 | 0.897 | 0.865 | 0.788 | 0.576
5 | CAL-12T | 1.16 | 1.14 | 0.762 | 0.953 | 0.486 | 0.382 | 0.292 | 0.275 | 0.574 | 0.567 | 0.461 | 0.33 | 0.827 | 0.849 | 0.78 | 0.817
6 | RERF-LC-KJ | 0.708 | 0.866 | 0.515 | 0.787 | 0.51 | 0.306 | 0.334 | 0.346 | 0.747 | 0.605 | 0.621 | 0.467 | 0.868 | 0.818 | 0.838 | 0.857
7 | BEN | 1.16 | 1.37 | 0.929 | 1.16 | 0.263 | 0.18 | 0.236 | 0.271 | 0.537 | 0.492 | 0.467 | 0.439 | 0.895 | 1.24 | 0.766 | 1.04
8 | EMC-BAC-2 | 0.634 | 0.664 | 0.613 | 0.818 | 0.299 | 0.274 | 0.241 | 0.251 | 0.37 | 0.343 | 0.304 | 0.178 | 0.808 | 0.897 | 0.795 | 0.884
9 | LU99A | 0.392 | 0.306 | 0.291 | 0.307 | 0.251 | 0.233 | 0.223 | 0.186 | 0.368 | 0.245 | 0.229 | 0.193 | 0.544 | 0.497 | 0.499 | 0.467
10 | ABC-1 | 0.875 | 0.845 | 0.659 | 0.945 | 0.382 | 0.285 | 0.225 | 0.298 | 1.23 | 0.819 | 0.708 | 0.409 | 1.05 | 0.711 | 0.619 | 0.777
11 | NCI-H2347 | 1.17 | 0.873 | 0.94 | 1.11 | 0.33 | 0.287 | 0.244 | 0.342 | 0.581 | 0.487 | 0.415 | 0.543 | 0.988 | 0.736 | 0.915 | 0.893
12 | NCI-H1993 | 0.678 | – | 0.649 | 0.745 | 0.545 | 0.533 | 0.665 | 0.605 | 0.663 | 0.413 | 0.44 | 0.422 | 0.705 | – | 0.723 | 0.733
13 | NCI-H322M | 0.694 | 0.539 | 0.557 | 0.895 | 0.483 | 0.364 | 0.363 | 0.321 | 0.794 | 0.688 | 0.638 | 0.64 | 0.968 | 0.83 | 0.865 | 0.96
14 | NCI-H838 | 1.05 | 0.819 | 0.815 | 0.982 | 0.362 | 0.192 | 0.182 | 0.28 | 0.7 | 0.627 | 0.535 | 0.266 | 1.09 | 0.848 | 0.753 | 0.874
15 | HARA | 0.73 | 0.681 | 0.569 | 0.697 | 0.439 | 0.208 | 0.171 | 0.25 | 0.364 | 0.233 | 0.31 | 0.433 | 0.947 | 0.939 | 0.88 | 1.12
16 | NCI-H2087 | 1.09 | 1.07 | 0.928 | 0.851 | 0.366 | 0.254 | 0.267 | 0.338 | 0.635 | 0.774 | 0.473 | 0.357 | 0.933 | 0.935 | 0.962 | 0.932
17 | NCI-H1437 | 0.722 | 0.561 | 0.581 | 0.717 | 0.703 | 0.272 | 0.208 | 0.205 | 0.898 | 0.744 | 0.527 | 0.433 | 0.935 | 0.833 | 0.671 | 0.843

Row | Cell Line | relative viability ([1]; first compound 0.04 µM) | relative viability ([1]; first compound 0.1265 µM) | relative viability ([1]; first compound 0.4 µM) | relative viability ([1]; first compound 1.265 µM) | relative viability ([2]; first compound 0.04 µM) | relative viability ([2]; first compound 0.1265 µM) | relative viability ([2]; first compound 0.4 µM) | relative viability ([2]; first compound 1.265 µM) | relative viability ([3]; first compound 0.04 µM) | relative viability ([3]; first compound 0.1265 µM) | relative viability ([3]; first compound 0.4 µM) | relative viability ([3]; first compound 1.265 µM) | relative viability ([4]; first compound 0.04 µM) | relative viability ([4]; first compound 0.1265 µM) | relative viability ([4]; first compound 0.4 µM) | relative viability ([4]; first compound 1.265 µM)
18 | NCI-H650 | 1.04 | 0.731 | 0.891 | 0.811 | 0.459 | 0.214 | 0.306 | 0.289 | 0.42 | 0.195 | 0.334 | 0.257 | 1.19 | 0.706 | 0.804 | 0.721
19 | COR-L23 | 0.721 | 0.711 | 0.563 | 0.412 | 0.656 | 0.53 | 0.518 | 0.461 | 0.345 | 0.323 | 0.115 | 0.109 | 0.818 | 0.855 | 0.768 | 0.705
20 | COR-L 105 | 0.871 | 0.805 | 0.689 | 0.806 | 0.627 | 0.377 | 0.31 | 0.408 | 0.845 | 0.611 | 0.579 | 0.604 | 0.796 | 0.808 | 0.627 | 0.946
21 | LK-2 | 1.01 | 1.13 | 0.818 | 1.23 | – | 0.163 | 0.153 | 0.178 | 0.294 | 0.182 | 0.151 | 0.202 | 0.579 | 1.11 | 0.376 | 0.573
22 | 201T | 0.893 | 0.836 | 0.767 | 0.942 | 0.519 | 0.356 | 0.35 | 0.306 | 0.858 | 0.755 | 0.634 | 0.62 | 0.97 | 0.97 | 0.908 | 1.04
23 | HCC-44 | 0.666 | 0.698 | 0.552 | 0.783 | 0.447 | 0.213 | 0.298 | 0.191 | 1.08 | 1.02 | 0.887 | 1.08 | 0.777 | 0.622 | 0.605 | 0.945
24 | NCI-H596 | 0.573 | 0.264 | 0.356 | 0.471 | 0.63 | 0.557 | 0.555 | 0.793 | 0.571 | 0.449 | 0.528 | 0.466 | 0.954 | 1.02 | 0.939 | 1.18
25 | H3255 | 0.713 | 0.771 | 0.514 | 0.699 | 0.523 | 0.555 | 0.397 | 0.447 | 0.852 | 0.816 | 0.815 | 0.829 | 1.14 | 1.03 | 0.833 | 0.986
26 | NCI-H647 | 1.24 | 0.957 | 0.864 | 0.913 | 0.574 | 0.404 | 0.484 | 0.734 | 0.711 | 0.574 | 0.489 | 0.289 | 1.17 | 1.2 | 0.952 | 1.26
27 | NCI-H2023 | 0.407 | 0.374 | 0.376 | 0.407 | 0.3 | 0.088 | 0.105 | 0.116 | 0.75 | 0.201 | 0.419 | 0.127 | 0.699 | 0.619 | 0.537 | 0.657
28 | NCI-H23 | 0.595 | 0.407 | 0.41 | 0.601 | 0.397 | 0.232 | 0.225 | 0.266 | 0.473 | 0.332 | 0.27 | 0.178 | 0.612 | 0.5 | 0.484 | 0.613
29 | NCI-H1944 | 0.72 | 0.657 | 0.669 | 0.834 | 0.306 | 0.256 | 0.225 | 0.235 | 0.548 | 0.448 | 0.482 | 0.545 | 1.18 | 1.2 | 1.1 | 1.3
30 | NCI-H1793 | 0.731 | 0.625 | 0.553 | 0.731 | 0.254 | 0.195 | – | 0.196 | 0.79 | 0.613 | 0.507 | 0.202 | 0.863 | 0.961 | 0.573 | 0.992
31 | NCI-H520 | 0.918 | 0.688 | 0.926 | 0.801 | 0.328 | 0.297 | 0.257 | 0.22 | 0.668 | 0.668 | 0.685 | 0.489 | 0.951 | 0.867 | 0.915 | 1.07
32 | NCI-H460 | 0.401 | 0.207 | 0.222 | 0.389 | 0.538 | 0.252 | 0.29 | 0.313 | 0.829 | 0.431 | 0.555 | 0.302 | 0.834 | 0.667 | 0.708 | 0.82
33 | EKVX | 0.837 | 0.672 | 0.581 | 0.666 | 0.574 | 0.399 | 0.391 | 0.373 | 0.616 | 0.648 | 0.509 | 0.684 | 0.989 | 0.742 | 0.725 | 0.964
